Patent US4118506A, “Pharmaceutical compositions containing 1,3-dithiol-2-ylidene malonate derivatives” (Nihon Nohyaku Co., Ltd., priority 1976, dated 1978)

Tests used:
[1] = acute oral toxicity to male mice (LD50); details: mouse, in vivo
Source text: Further, these compounds have no detrimental effects on test animals administered therewith, so far as the doses thereof are within an ordinary administration range.

[2] = test system: liver injury and chronic hepatitis; assay: clinical test on liver injury and chronic hepatitis; type: in vivo, human; details: for p-GOT activity / p-GPT activity: tablets of Example 6, 12 a day
Procedure: Six patients were used for the test. One was diagnosed as liver injury caused by administration of PAS (p-aminosalicyclic acid) for three months and five were diagnosed as chronic hepatitis by doctor.
The tablets obtained in Example 6 were orally administered to the respective patients at the dose of twelve tablets a day (four tablets after every meal).
Curing effects on the liver injury and chronic hepatitis after administration were evaluated by measuring plasma transaminase activity (p-GPT and p-GOT).

[3] = patient 1, liver injury (PAS), person, before administration
[4] = patient 2, chronic hepatitis, before administration
[5] = patient 3, chronic hepatitis, before administration
[6] = patient 4, chronic hepatitis, before administration
[7] = patient 5, chronic hepatitis, before administration
[8] = patient 6, chronic hepatitis, before administration

## CC(C)OC(=O)C(C(=O)OC(C)C)=C1SC=CS1 [Compound 4, diisopropyl 1,3-dithiol-2-ylidene malonate]
[1]
  LD50: 3120 mg/kg
[2]; in words
  plasma transaminase activity (p-GPT and p-GOT): useful for normalizing plasma transaminase activity
[2]; patient 1, after 3 days
  p-GOT activity: 270 Karmen Unit
  p-GPT activity: 215 Karmen Unit
[2]; patient 1, after 4 days
  p-GOT activity: 231 Karmen Unit
  p-GPT activity: 169 Karmen Unit
[2]; patient 1, after 7 days
  p-GOT activity: 81 Karmen Unit
  p-GPT activity: 94 Karmen Unit
[2]; patient 1, after 12 days
  p-GOT activity: 36 Karmen Unit
  p-GPT activity: 41 Karmen Unit
[2]; patient 1, after 15 days
  p-GOT activity: 37 Karmen Unit
  p-GPT activity: 24 Karmen Unit
[2]; patient 1, after 19 days
  p-GOT activity: 24 Karmen Unit
  p-GPT activity: 21 Karmen Unit
[2]; [3]
  p-GOT activity: 270 Karmen Unit
  p-GPT activity: 270 Karmen Unit
[2]; patient 2, after 14 days
  p-GOT activity: 68 Karmen Unit
  p-GPT activity: 62 Karmen Unit
[2]; patient 2, after 35 days
  p-GOT activity: 24 Karmen Unit
  p-GPT activity: 43 Karmen Unit
[2]; [4]
  p-GOT activity: 270 Karmen Unit
  p-GPT activity: 270 Karmen Unit
[2]; patient 3, after 14 days
  p-GOT activity: 100 Karmen Unit
  p-GPT activity: 96 Karmen Unit
[2]; patient 3, after 56 days
  p-GOT activity: 77 Karmen Unit
  p-GPT activity: 87 Karmen Unit
[2]; [5]
  p-GOT activity: 145 Karmen Unit
  p-GPT activity: 163 Karmen Unit
[2]; patient 4, after 2 days
  p-GOT activity: 60 Karmen Unit
  p-GPT activity: 113 Karmen Unit
[2]; patient 4, after 9 days
  p-GOT activity: 68 Karmen Unit
  p-GPT activity: 94 Karmen Unit
[2]; patient 4, after 16 days
  p-GOT activity: 49 Karmen Unit
  p-GPT activity: 62 Karmen Unit
[2]; patient 4, after 62 days
  p-GOT activity: 33 Karmen Unit
  p-GPT activity: 33 Karmen Unit
[2]; [6]
  p-GOT activity: 80 Karmen Unit
  p-GPT activity: 185 Karmen Unit
[2]; patient 5, after 8 days
  p-GOT activity: 78 Karmen Unit
  p-GPT activity: 119 Karmen Unit
[2]; patient 5, after 28 days
  p-GOT activity: 65 Karmen Unit
  p-GPT activity: 79 Karmen Unit
[2]; patient 5, after 30 days
  p-GOT activity: 57 Karmen Unit
  p-GPT activity: 57 Karmen Unit
[2]; [7]
  p-GOT activity: 95 Karmen Unit
  p-GPT activity: 94 Karmen Unit
[2]; patient 6, after 14 days
  p-GOT activity: 108 Karmen Unit
  p-GPT activity: 306 Karmen Unit
[2]; patient 6, after 23 days
  p-GOT activity: 48 Karmen Unit
  p-GPT activity: 121 Karmen Unit
[2]; patient 6, after 36 days
  p-GOT activity: 33 Karmen Unit
  p-GPT activity: 65 Karmen Unit
[2]; patient 6, after 56 days
  p-GOT activity: 24 Karmen Unit
  p-GPT activity: 53 Karmen Unit
[2]; patient 6, after 82 days
  p-GOT activity: 24 Karmen Unit
  p-GPT activity: 39 Karmen Unit
[2]; [8]
  p-GOT activity: 83 Karmen Unit
  p-GPT activity: 354 Karmen Unit
